Columns and labels:
RAW264.7 cells [1] = assay: Phagocytosis of fluorescent-labeled E. coli by activated RAW264.7 cells; type: cell-based
Text: Macrophages contribute to host defense mechanism by, when infected with bacteria, engulfing the whole or part of the bacteria as foreign matter and digesting the foreign matter in the lysosome containing hydrolytic enzymes, etc. This penomenon of engulfing foreign matter, referred to as phagocytosis, is marker of macrophage activation. Thus, by using as a marker phagocytotic ability of RAW264.7 cells derived from macrophages activated by the LPS or IL-1β stimulation, the effect of (±)-DHM2EQ on macrophage activation was examined.
500 μl of RAW264.7 cells were plated in each chamber at a concentration of 4×10^5 cells/ml in chamber slides. After an overnight incubation, (±)-DHM2EQ was added, and the slides were incubated for 2 hours. LPS (final concentration: 1 μg/ml) was then added, and the slides were incubated for 10 mins and then washed with 750 μl of PBS two times. Subsequently, PBS was removed and 250 μl of the solution containing fluorescent-labeled E. coli (Molecular probes, U.S.) (i.e. a solution of fluorescent-labeled E. coli diluted with […] of PBS) was added to each chamber, and the slides were incubated for 2 hours at room temperature the cells were then washed twice in 750 μl of PBS and the phagocytic ability of macrophage-derived RAW264.7 cells were observed under a fluorescence microscope and a phase-contrast microscope. In addition, in the activation using IL-1β, the phagocytic ability of macrophage-derived RAW264.7 cells was examined in the same manner as above, except that IL-1β (final concentration: 10 ng/ml) was added in place of LPS.

RAW264.7 cells [2] = assay: IL-6 secretion from LPS-activated RAW264.7 cells (ELISA); type: cell-based; settings: LPS 10 μg/ml, 24 h
RAW264.7 cells [3] = assay: IL-1β secretion from LPS-activated RAW264.7 cells (ELISA); type: cell-based, mouse; settings: LPS 10 μg/ml, 24 h, 0, 1, 3, 10 μg/ml compound
Description: Next, the effect of (±)-DHM2EQ on IL-1β secretion, which is another marker of macrophage activation in macrophage-derived RAW264.7 cells activated by […], was examined.
500 μl of RAW264.7 cells were plated in each well at a concentration of 4×10^5 cells/ml, and the plates were incubated at 37° C. for 1-day. (±)-DHM2EQ (final concentrations: 0, 1, 3, and 10 μg/ml) was then added followed by 2-hour incubation and then LPS (final concentration: 10 μg/ml) was added followed by 24-hour stimulation. After the stimulation, the cell supernatant was recovered (500 μ/l each), and centrifuged at 15000 rpm for 2 min, and the insoluble fractions were removed; the samples were thus obtained.
The amount of IL-1β secretion was examined using mouse IL-1β ELISA assay kit (R&D Systems; Minneapolis, U.S.). First, 50 μl of Reaction Buffer was added to 96-well microplates, on which mouse IL-1β antibody (polyclonal antibody) had been fixed, and 50 βl of the aforementioned sample were applied to each well of the plates. […] Subsequently, 100 μl of stopping solution was added and the OD value at 450 nm was measured using a microplate reader. Then, the concentration of IL-1β was determined from the calibration curve constructed using mouseIL-1β standard supplied with mouse IL-1β ELISA assay kit.

J774.1 cells = assay: NO production in activated J774.1 cells (Griess reagent); type: cell-based; settings: IFN-γ + LPS
Description: (§1) Since NO produced is released out of cells and mixed in the medium, being present as NO2^−, the amount of NO produced was determined by developing a color reaction and measuring optical density (OD570) after the addition of the Griess reagent to the a medium. Then, each amount of NO produced when (±)-DHM2EQ was applied at different concentrations was compared as a relative value by taking OD570 of the sample […] the addition of macrophage activating factor as 100%.
(§2) A cell suspension prepared at 4×10^5 cells/ml was plated at 200 μl/well in 96-well plates (Costar:Acton, Mass.). (±)-DHM2EQ was diluted at 0, 1, 3, and 10 μg/ml and added to each well of the plates. After 2-hour incubation under the condition of 37° C. in 5% CO2, IFN-γ (final concentration: 100 ng/ml) and LPS (final concentration: 10 μg/ml) were added to the wells and then the plates were incubated for 18 hours. 100 μl of the Griess reagent was added to each of the cell suspensions and allowed to react for 10 min, and then OD570 was measured with a microplate reader.
The effect of (±)-DHM2EQ on NO production in another activated macrophage-derived cell line, J774.1, was examined in the same manner as described in Example 1.

RAW264.7 cells [4] = assay: iNOS expression in LPS-activated RAW264.7 cells (Western blot); type: cell-based; settings: LPS 10 μg/ml, 24 h, 0, 1, 3, 10 μg/ml compound
Description: Since NO is produced by the enzyme iNOS within cells, it was examined whether this suppression results from suppression of iNOS expression.
Cells were plated in 100 mm dishes at 4×10^5 cells/ml, incubated overnight, and then (±)-DHM2EQ was added at final concentrations of 0, 1, 3, and 10 μg/ml. After 2 hours, LPS (final concentration: 10 μg/ml) was added to stimulate for 24 hours. Then, cell suspension was collected and centrifuged, and cells were lysed in 65 μl of prepared lysis buffer (50 mM Tris-HCl: pH 8.0, 1% NP-40, 20 mM EDTA, 100 mM NaVO4, 0.1 mg/ml leupeptin, 1 mM PMSF). Then, the supernatant of the cell lysate was isolated, each protein concentration was measured, and the predetermined mass of protein was boiled as a sample. This sample was subjected to SDS-PAGE and the proteins on the gel were transferred to a nitrocellulose membrane, which was then reacted with anti-iNOS antibody (Santa Cruz) followed by sheep anti-rabbit IgG antibody (Amersham). Subsequently, color was developed by the ECL detection system, and the signal was detected by exposing the membrane to the film (Fuji Photo Film)

RAW264.7 cells [5] = assay: Intracellular NO in RAW264.7 cells observed in situ with DAF-2DA fluorescence; type: cell-based; settings: IFN-γ + LPS, 10 μg/ml compound
Description: Further, to observe suppression of NO production in situ in macrophage-derived RAW264.7 cells by (±)-DHM2EQ when LPS and IFN-γ are used in combination with (±)-DHM2EQ, intracellular NO was directly observed using diaminofluorescein-2 diacetate (DAF-2DA; Daiich Pure Chemicals).
500 μl of RAW264.7 cells were first plated in each chamber on chamber slides at a concentration of 6×10^5 cells/ml. After 1 day incubation under the condition of 37° C. in 5% CO2, (±)-DHM2EQ was added, followed by 2-hour incubation. Subsequently, IFN-γ (final concentration: 100 ng/ml) and LPS (final concentration: 10 μg/ml) were added, followed by 6-hour incubation. Then, the medium was changed to DAF-2DA-containing phosphate buffered saline (PBS; 8 g/l NaCl, 0.2 g/l KCl, 0.916 g/l Na2HPO4, 0.2 g/l KH2PO4), followed by further 2-hour incubation. The fluorescence images were then observed with a fluorescence microscope.

RAW264.7 cells [6] = assay: COX-2 production in LPS-activated RAW264.7 cells (Western blot); type: cell-based; settings: LPS 10 μg/ml, 24 h, 1, 3, 10 μg/ml compound
Text: It is known that macrophages activated by inflammatory stimuli and growth factor produces COX-2, a prostaglandin synthase, which is responsible for various pathological conditions such as inflammation, cancer cell proliferation, cancer development, angiogenesis, tumor metastasis, etc. Further, it has recently been known that, in systemic lupus erythematosus (SLE), which is an autoimmune disease, self-reactive T cells acquire resistance to apoptosis with increasing COX-2 expression (Nature Medicine 10, 411-415, 2004) Thus, on the assumption that use of (±)-DHM2EQ might make it possible to inhibit macrophage activation and thereby to suppress COX-2 production, the effect of (±)-DHM2EQ on COX-2 production in RAW264.7 cells derived from macrophages activated by LPS stimulation was examined.
RAW264.7 cells were plated at 4×10^6 cells/dish in a 100 mm dish (Coaster:Acton, Mass.) containing DMEM medium, and the plates were incubated overnight at 37° C. under 5% CO2. Then, (±)-DHM2EQ (final concentrations: 1, 3, and 10 μg/ml) was added followed by 2-hour incubation and then LPS (final concentration: 10 μg/ml) was added followed by 24-hour stimulation. The cells were then recovered and lysed with 65 μl of lysis buffer (50 mM Tris-HCl: pH 8.0, 1% NP-40, 20 mM EDTA, 100 mM NaVO4, 0.1 mg/ml leupeptin, 1 mM PMSF) and SDS-PAGE was performed. […]

RAW264.7 cells [7] = assay: TNF-α secretion from IL-1β-activated RAW264.7 cells; type: cell-based; settings: IL-1β 10 ng/ml, 6 h
RAW264.7 cells [8] = assay: NO production in activated RAW264.7 cells (Griess reagent, OD570); type: cell-based
Description: It is known that, in macrophages, the expression of iNOS is induced by lipopolysaccharides such as LPS and interferons such as IFN-γ, thereby triggering NO production. Thus, by using macrophage-derived cultured cells, the influence of (±)-DHM2EQ on NO production when LPS and IFN-γ were used in combination with (±)-DHM2EQ was examined.
as §1, §2

NF-κB = assay: Inhibition of NF-κB activation; settings: compared with (±)-DHM2EQ

SMILES	phagocytosis of E. coli (RAW264.7 cells [1]; IL-1β stimulation, pretreatment with 10 μg/ml compound)	phagocytosis of E. coli (RAW264.7 cells [1]; LPS stimulation, pretreatment with 10 μg/ml compound)	phagocytosis of E. coli (RAW264.7 cells [1]; LPS stimulation, pretreatment, concentration series)	IL-6 production (RAW264.7 cells [2])	IL-1β secretion (RAW264.7 cells [3])	NO production (J774.1 cells; 10 μg/ml compound)	NO production (J774.1 cells; concentration series)	iNOS expression (RAW264.7 cells [4])	intracellular NO production (DAF-2DA fluorescence) (RAW264.7 cells [5])	COX-2 production (RAW264.7 cells [6])	TNF-α production (RAW264.7 cells [7])	NO production (RAW264.7 cells [8]; IFN-γ 100 ng/ml + LPS 10 μg/ml, 18 h, 0, 1, 3, 10 μg/ml compound)	NO production (RAW264.7 cells [8]; IFN-γ + LPS, 10 μg/ml compound)	inhibitory effect on NF-κB activation (NF-κB)
O=C(NC1=CC(=O)C2OC2C1O)c1ccccc1O (racemic) [(±)-DHM2EQ, 5,6-epoxy-4-hydroxy-3-salicyloylamino-2-cyclohexenone]	suppressed almost to the same level as the control	suppressed almost to the same level as the control	suppressed depending on its treatment concentration	suppresses IL-6 production depending on its treatment concentration	suppresses the expression of IL-1β depending on its treatment concentration	suppressed to the control level	suppressed depending on (±)-DHM2EQ treatment concentration	suppresses the expression of iNOS depending on its treatment concentration	suppressed to the control level	suppresses COX-2 production depending on its treatment concentration	suppresses TNF-α production depending on its treatment concentration	suppressed depending on the concentration of (±)-DHM2EQ added	suppressed almost to the control level	–
O=C(NC1=CC(=O)[C@H]2O[C@H]2[C@H]1O)c1ccccc1O [(−)-DHM2EQ]	–	–	–	–	–	–	–	–	–	–	–	–	–	stronger inhibitory effect on NF-κB activation than (±)-DHM2EQ
